According to US20110287100A1, “Galenic Formulations of Organic Compounds” (priority 2009, published 2011):
Like-named read-outs stand apart in the source and are kept apart here.

Legend:
[1] = Pharmacokinetics in pediatric patients, open label multiple dose study; settings: human, in vivo; for AUC: read-out: AUCtau, Mean; for Tmax: read-out: Tmax, Median; for half-life: read-out: T½, Mean (converted)
Description: An open label, multiple dose pharmacokinetic and pharmacodynamic study was performed in 24 pediatric patients, ages 6-17 years. […] Blood samples were collected on days one and eight and pharmacokinetics were assessed using a non-compartmental analysis approach.

Water solubility = assay type: physicochemical; settings: between pH 1 and 8
[2] = 2 mg/kg, 6-11 yrs old, 2 mg/kg, Day 1
[3] = 2 mg/kg, 6-11 yrs old, 2 mg/kg, Day 8
[4] = 2 mg/kg, 12-17 yrs old, 2 mg/kg, Day 1
[5] = 2 mg/kg, 12-17 yrs old, 2 mg/kg, Day 8
[6] = 6 mg/kg, 6-11 yrs old, 6 mg/kg, Day 1
[7] = 6 mg/kg, 6-11 yrs old, 6 mg/kg, Day 8
[8] = 6 mg/kg, 12-17 yrs old, 6 mg/kg, Day 1
[9] = 6 mg/kg, 12-17 yrs old, 6 mg/kg, Day 8

**Q.** What does the source list for `COCCCOc1cc(C[C@@H](C[C@H](N)[C@@H](O)C[C@H](C(=O)NCC(C)(C)C(N)=O)C(C)C)C(C)C)ccc1OC` [Aliskiren, 2(S),4(S),5(S),7(S)—N-(3-amino-2,2-dimethyl-3-oxopropyl)-2,7-di(1-methylethyl)-4-hydroxy-5-amino-8-[4-methoxy-3-(3-methoxy-propoxy)phenyl]-octanamide]?
**A.** Cmax [1, 2]: 0.039 µg/mL; AUC [1, 2]: 0.149 µg·h/mL; Tmax [1, 2]: 0.5 h; Cmax [1, 3]: 0.048 µg/mL; AUC [1, 3]: 0.24 µg·h/mL; Tmax [1, 3]: 0.5 h; half-life [1, 3]: 40 h; Cmax [1, 4]: 0.136 µg/mL; AUC [1, 4]: 0.391 µg·h/mL; Tmax [1, 4]: 1 h; Cmax [1, 5]: 0.279 µg/mL; AUC [1, 5]: 0.846 µg·h/mL; Tmax [1, 5]: 1 h; half-life [1, 5]: 40 h; Cmax [1, 6]: 0.323 µg/mL; AUC [1, 6]: 1.84 µg·h/mL; Tmax [1, 6]: 1.3 h; Cmax [1, 7]: 0.259 µg/mL; AUC [1, 7]: 0.956 µg·h/mL; Tmax [1, 7]: 0.8 h; half-life [1, 7]: 36 h; Cmax [1, 8]: 0.424 µg/mL; AUC [1, 8]: 1.8 µg·h/mL; Tmax [1, 8]: 1.8 h; Cmax [1, 9]: 0.486 µg/mL; AUC [1, 9]: 2.09 µg·h/mL; Tmax [1, 9]: 2 h; half-life [1, 9]: 42 h; solubility (Water solubility): > 350 mg/mL
